PMC9079302 (The Journal of Biological Chemistry, 2022)
Several values for one entry are separate records, joined by “and”; a condition that tells them apart may be missing. Equal values may be shown once. Read-outs that look alike come from different tables or passages of the source.

How the values were obtained:
P450 3A5 = biological target: T1, P450 3A5 (Homo sapiens, UniProt P20815); experiment: Type 1 spectral shift equilibrium binding to P450 3A5; settings: for concentration dependence of type 1 spectral shift (shape of binding curve): 3A5 binding isotherm; for ΔAmax/[P450]: one-site binding (Equation 2; tiamulin Equation 3)
T1 construct: 4-histidine tag (C); made in house; host or cells: Escherichia coli
T1 sequence (P20815 with tags, fused parts or gaps limits assumed): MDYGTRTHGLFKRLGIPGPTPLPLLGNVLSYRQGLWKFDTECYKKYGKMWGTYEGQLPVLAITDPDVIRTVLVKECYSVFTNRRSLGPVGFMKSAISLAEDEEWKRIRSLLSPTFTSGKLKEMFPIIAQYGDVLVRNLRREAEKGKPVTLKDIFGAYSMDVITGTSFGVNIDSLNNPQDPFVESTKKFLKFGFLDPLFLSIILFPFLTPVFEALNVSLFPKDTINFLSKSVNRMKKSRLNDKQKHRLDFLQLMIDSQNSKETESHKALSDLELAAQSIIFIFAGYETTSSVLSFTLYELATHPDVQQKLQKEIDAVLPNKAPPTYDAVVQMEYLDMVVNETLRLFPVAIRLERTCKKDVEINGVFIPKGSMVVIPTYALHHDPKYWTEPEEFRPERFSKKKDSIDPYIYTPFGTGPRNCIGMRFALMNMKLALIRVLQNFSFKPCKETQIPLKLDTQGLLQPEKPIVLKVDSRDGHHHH
Description: The sample cuvette contained 3A5, and the corresponding buffer was in the reference cuvette. The protein buffer consisted of 50 mM sodium Hepes at pH 7.4, 50 mM potassium acetate at pH 7.4, 0.5 mM EDTA, and 20% glycerol. […] The digital spectra were sampled at 1 nm intervals for 1 s. Excel was used to subtract the initial spectrum from subsequent spectra with volume corrections for substrate addition. […] Initial values for Kds and RSRs for each complex are provided. Ligand-free P450 was assigned an RSR of zero. The output includes predicted values for Kds and RSRs, correlations between parameters, and several statistical values for goodness of fit and variances. In addition, graphs of the fit of the data to the model and residuals are produced in several formats.

3A5 [1] = test system: 3A5; design: method as in PMID 27485383; settings: cited from earlier work
[2] = test system: human microsomal testosterone turnover; design: method as in PMID 33137559; settings: human microsomes; cited from earlier work
3A5 [3] = test system: 3A5; design: method as in PMID 17200113; settings: type 2 shift, 1 μM P450, biphasic response; cited from earlier work
[4] = type 1 spectral shift, one-site binding (Equation 2; tiamulin tight-binding Equation 3), [P450] 0.94–2.03 μM, read-out: Kd

concentration dependence of type 1 spectral shift (shape of binding curve) (P450 3A5)	ΔAmax/[P450] (P450 3A5; type 1 spectral shift)	Kd (P450 3A5; [4])	Compound	further results
			CC[C@]1(C)C[C@@H](OC(=O)CSc2n[nH]c(N)n2)[C@]2(C)[C@H](C)CC[C@]3(CCC(=O)[C@H]32)[C@@H](C)[C@@H]1O [Azamulin, (3aS,4R,5S,6R,8R,9R,9aR,10R)-6-ethyl-5-hydroxy-4,6,9,10-tetramethyl-1-oxodecahydro-3a,9-propanocyclopenta[8]annulen-8-yl [(5-amino-1H-1,2,4-triazol-3-yl)sulfanyl]acetate]	Kd (P450 3A5; Dynafit numerical fit, model 4, [P450] 3.73–4.36 μM, 4 replicates, read-out: K1d (binary complex, two-site sequential binding model)): 0.6 µM and 0.65 µM; Kd (P450 3A5; Dynafit numerical fit, model 4, [P450] 3.73–4.36 μM, 4 replicates, read-out: K2d (ternary complex, two-site sequential binding model)): 3.4 µM and 3.41 µM; Kd (P450 3A5; type 1 spectral shift, sigmoidal curve, nominal 4 μM 3A5, n = 4, read-out: Kd (Hill equation fit)): 7.1 ± 0.4 µM; time-dependent inhibition of 3A5 (3A5 [1]): either very slow or nonexistent
hyperbolic	0.06 ± 0.00	55.1 ± 7.8 µM	C=C[C@]1(C)C[C@@H](OC(=O)CS[C@@H]2CC[C@@H](N)C[C@H]2O)[C@]2(C)[C@H](C)CC[C@]3(CCC(=O)[C@H]32)[C@@H](C)[C@@H]1O [Lefamulin]	
hyperbolic	0.12 ± 0.02	32.7 ± 4.3 µM	C=C[C@]1(C)C[C@@H](OC(=O)CO)[C@]2(C)[C@H](C)CC[C@]3(CCC(=O)[C@H]32)[C@@H](C)[C@@H]1O [Pleuromutilin]	
hyperbolic	0.09 ± 0.00	16.6 ± 2.4 µM	C=C[C@]1(C)C[C@@H](OC(=O)CS[C@@H]2C[C@H]3CC[C@@H](C2)N3C)[C@]2(C)[C@H](C)CC[C@]3(CCC(=O)[C@H]32)[C@@H](C)[C@@H]1O [Retapamulin]	
hyperbolic	0.08 ± 0.00	6.31 ± 1.02 µM	C=C[C@]1(C)C[C@@H](OC(=O)CSCCN(CC)CC)[C@]2(C)[C@H](C)CC[C@]3(CCC(=O)[C@H]32)[C@@H](C)[C@@H]1O [Tiamulin]	IC50 [2]: 1.69 µM
			CC(=O)N1CCN(c2ccc(OCC3COC(Cn4ccnc4)(c4ccc(Cl)cc4Cl)O3)cc2)CC1 (stereo not drawn) [ketoconazole]	Hill coefficient (3A5 [3]): 1.4
